Measured values published in patent US10087156B2, “Methods and compositions related to retinoid receptor-selective pathway” (Sanford Burnham Prebys Medical Discovery Institute, priority 2010, dated 2018).
pIC50: −log10 of the molar value. Entries after “also recorded” stand apart in the source; their conditions may differ.

Tests used:
[1] = target: T1, RXRα ligand-binding domain (LBD) (Homo sapiens, UniProt P19793); test: Competitive ligand-binding assay with [3H]9-cis-RA
T1 construct: made in house
Procedure: Competitive ligand-binding assays (FIG. 1A) and HPLC analysis of Sulindac binding to RXRα, Nur77, or RARβ in HEK293T cells (FIG. 1B) were performed. RXRα LBD protein was incubated with [^3H]9-cis-RA in the presence or absence of Sulindac or unlabeled 9-cis-RA. Bound [^3H]9-cis-RA was quantitated by liquid scintillation counting (FIG. 1A). HEK293T cells stably expressing RXRαfused to a C-terminal TAP tag (Stratagene, La Jolla, Calif.) were treated with or without 100 μM sulindac sulfide for 3 hr. After treatment, cells were purified and analyzed by HPLC for the presence of sulindac sulfide. A standard solution of sulindac sulfide was used to obtain the calibration curve. Characteristic peak spectrum and retention time was used for identification, and peak areas at max used for quantification were calculated (FIGS. 1B and 10). Sulindac sulfide bound to RXRα with an IC50 of 80 μM (FIG. 1A), which is in the concentration range that induces apoptosis.
Bacterially expressed His-tagged RXRα ligand-binding domain (LBD) (aa 223-462) was incubated with [^3H]-9-cis-RA (Amersham Biosciences, Amersham, UK) in ligand binding assay buffer in the presence or absence of various concentrations of unlabeled 9-cis-RA or sulindac sulfide. […] Bound radiolabeled 9-cis-RA was determined in a scintillation counter as described (Kolluri, S. K. et al., Proc Natl Acad Sci USA 102 (7), 2525-2530 (2005)).

[2] = tested on: AKT; test: TNFα-induced AKT activation by immunoblotting; assay type: cell-based
Procedure: MEF and MCF-7 cells were starved overnight, pretreated with Sulindac for 1 hr, and stimulated with EGF (100 ng/ml) for 15 min. AKT activation was analyzed by immunoblotting (FIG. 12A). MEF and Caco-2 cells were starved overnight and pretreated with Sulindac for 30 min before exposure to all-trans-retinoic acid (ATRA) (10^−7 M) for 30 min and analyzed for AKT activation (FIG. 12B). AKT activation in ZR-75-1 breast cancer cells transfected with RXRα siRNA for 48 hr before exposure to 9-cis-RA (10^−7 M) for 30 min was also analyzed by immunoblotting (FIG. 12C). A549 lung cancer cells transfected with RXRα or control siRNA (FIG. 3C) and ZR-75-1 and PC3 cells (FIG. 3D) were pretreated with Sulindac (100 μM) for 1 hr before exposure to TNFα (10 ng/ml) for 30 min and analyzed for AKT activation and RXRα expression by immunoblotting.
For immunoblotting, cell lysates were boiled in SDS sample buffer, resolved by SDS-polyacrylamide gel electrophoresis, and transferred to nitrocellulose. After transfer, the membranes were blocked in 5% milk in TBST (10 mM Tris-HCl, pH. 8.0, 150 mM NaCl, 0.05% Tween 20) containing antibody. The membranes were then washed three times with TBST, then incubated for 1 hr at room temperature in 5% milk in TBST containing horseradish peroxide-linked anti-immunoglobulin.

[3] = tested on: HeLa/RXRα/1-134 stable clone; test: Colony formation (clonogenic survival) assay; assay type: cell-based; conditions: HeLa/RXRα/1-134 stable clone (also RXRα/Δ80 stable clones)
Procedure: HeLa RXR/α1-134 stable clone and control HeLa cells were seeded in 6-well plate, 350 cells/well. Five days later, cells were treated with Sulindac (50 μM) and K-80003 (25 μM) in 0.5% serum medium for 3 days. After washed with PBS, cells were fixed with 4% paraformaldehyde in PBS for 20 min. Colonies were stained with 0.1% crystal violet for 30 min, and pictures were taken and colonies were counted.

[4] = tested on: HepG2 liver cancer cells; test: PARP cleavage and caspase-8 activation with TNFα by immunoblotting; assay type: cell-based; conditions: HepG2 (K-80003: HepG2 and PC3) cells, TNFα 10 ng/ml
Procedure: ZR-75-1 cells were treated with TNFα and/or Sulindac (75 μM) or K-80003 (50 μM) for 6 hr and analyzed by immunoblotting.
HepG2 cells cultured in medium with 1% FBS were treated with SR11237 (1 μM) for 1 hr, then TNFα (10 ng/ml) and/or Sulindac (75 μM) for 4 hr, and analyzed by immunoblotting. HepG2 cells transfected with control or RXRα siRNA were treated with TNFα and/or Sulindac and analyzed by immunoblotting.

[5] = Preclinical bioavailability and pharmacokinetics; assay type: in vivo
Procedure: Preclinical studies of K-80003 were performed, including the investigation of toxicity, bioavailability, and pharmacokinetics.

[6] = target: RXRα LBD (Homo sapiens, UniProt P19793); test: Proteolytic protection assay (chymotrypsin sensitivity); assay type: binding; conditions: 100 μM
Procedure: Altered sensitivity of RXRα ligand-binding domain (LBD) to chymotrypsin (ug/ml) by Sulindac (100 μM) (FIG. 1C) and differential scanning calorimetry (DSC) scans comparing ^19F NMR spectra of Sulindac (100 μM) in the absence and presence of 10 μM RXRα LBD or Nur77 protein (FIG. 1D) were also determined. Binding to RXRα was confirmed by altered sensitivity of RXRα to chymotrypsin digestion by Sulindac (FIG. 1C) and differential scanning calorimetry (DSC) (FIG. 1D). In addition, inhibition of SR11237 (10^−6 M)-activated RXRα transactivation by Sulindac was measured (FIG. 1F, see Example 2).
RXRα LBD was synthesized by in vitro transcription-translation using rabbit reticulocyte lysates (Promega, Fitchburg, Wis.) as described previously (Kolluri, S. K. et al., Proc Natl Acad Sci USA 102 (7), 2525-2530 (2005); Zhang, X. K. et al., Nature 355 (6359), 441-446 (1992); Zhang, X.-K. et al., Nature. 358 (6387), 587-591 (1992)). In vitro translated ^35[S]methionine labeled RXRα-LBD was preincubated with solvent (1% DMSO), Sulindac (100 μM) or 9-cis-RA (10^−7 M) for 30 min. and then digested with indicated concentration of chymotrypsin. Digested fragments were separated by PAGE.

T1 sequence (P19793 223-462): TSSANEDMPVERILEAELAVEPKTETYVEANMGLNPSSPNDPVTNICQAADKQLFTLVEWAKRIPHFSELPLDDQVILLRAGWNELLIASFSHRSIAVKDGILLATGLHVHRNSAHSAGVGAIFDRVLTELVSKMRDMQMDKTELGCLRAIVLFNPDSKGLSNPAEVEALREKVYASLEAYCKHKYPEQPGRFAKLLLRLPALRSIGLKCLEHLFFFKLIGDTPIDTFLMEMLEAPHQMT
RXRα LBD, sequence (P19793 227-458 limits assumed): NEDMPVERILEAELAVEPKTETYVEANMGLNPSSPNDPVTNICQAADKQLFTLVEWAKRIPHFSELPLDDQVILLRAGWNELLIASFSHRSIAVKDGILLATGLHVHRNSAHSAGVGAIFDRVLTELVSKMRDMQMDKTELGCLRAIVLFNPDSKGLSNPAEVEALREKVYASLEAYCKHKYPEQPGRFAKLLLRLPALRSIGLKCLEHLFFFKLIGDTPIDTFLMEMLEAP

SMILES	RXRα-binding activity, fold higher than Sulindac ([1]; competition ligand-binding assay)	inhibition of TNFα-induced AKT activation, compared with Sulindac ([2]; 50 μM each)	inhibition of colony formation [3]	PARP cleavage and caspase-8 activation, combination with TNFα [4]	bioavailability ([5]; oral compared to intravenous formulation)	PK profiles ([5]; preclinical study)	pIC50 ([1]; competition with [3H]9-cis-RA on RXRα LBD protein)	binding to RXRα by altered sensitivity to chymotrypsin digestion [6]	inhibition of TNFα-induced AKT activation ([2]; A549 lung cancer cells, 100 μM, TNFα 10 ng/ml)	inhibition of AKT activation, Sulindac alone ([2]; ZR-75-1 and PC3 cells (high basal AKT activation))	inhibition of AKT activation, combination with TNFα ([2]; ZR-75-1 and PC3 cells, 100 μM, TNFα 10 ng/ml)
CC1=C(CC(=O)O)c2cc(F)ccc2/C1=C\c1ccc(C(C)C)cc1 [K-80003, (Z)-2-(3-(4-Iso-propylbenzylidene)-6-fluoro-2-methyl-3H-inden-1-yl)acetic acid]	about 34 fold	much more effective than Sulindac	much more effective than Sulindac; also recorded: almost completely suppressed	synergistically induced PARP cleavage and caspase-8 activation	increased bioavailaility in oral compared to intravenous formulation	desirable PK profiles					
CSc1ccc(/C=C2/C(C)=C(CC(=O)O)c3cc(F)ccc32)cc1 [Sulindac, (Z)-2-(3-(4-(Methylthio)benzylidene)-6-fluoro-2-methyl-3H-inden-1-yl)acetic acid]			strongly inhibited	effectively induced PARP cleavage and caspase-8 activation			4.10	confirmed	potently inhibited	little inhibitory effect	almost completely
